The test system of the assay is MV-4-11 cells. The assay is described as follows: Gene expression microarray analysis (Affymetrix PrimeView) and GSEA. Type of assay: cell-based, human. On the set-up: RFU PODN (11730768_x_at) / Fold change /veh PODN (11730768_x_at) / RFU LINC00158 (11744669_a_at) / Fold change /veh LINC00158 (11744669_a_at) / RFU DUSP10 (11751237_a_at) / Fold change /veh DUSP10 (11751237_a_at) / RFU ID3 (11757404_x_at) / Fold change /veh ID3 (11757404_x_at) / RFU PLEKHG5 (11737974_s_at) / Fold change /veh PLEKHG5 (11737974_s_at) / RFU LRRC4B (11730491_at) / Fold change /veh LRRC4B (11730491_at) / RFU GIMAP4 (11747438_a_at) / Fold change /veh GIMAP4 (11747438_a_at) / RFU KRT8 (11758183_x_at) / Fold change /veh KRT8 (11758183_x_at) / RFU CNN1 (11734310_a_at) / Fold change /veh CNN1 (11734310_a_at) / RFU VPS37D (11726825_at) / Fold change /veh VPS37D (11726825_at) / RFU C10orf10 (11716522_x_at) / Fold change /veh C10orf10 (11716522_x_at) / RFU KIR2DL2 /// KIR2DL4 /// KIR2DL5A /// KIR2DL5B /// KIR2DS1 /// KIR2DS2 /// KIR2DS3 /// KIR2DS4 /// KIR3DL3 /// KIR3DL3 /// KIR3DS1 (11738374_at) / Fold change /veh KIR2DL2 /// KIR2DL4 /// KIR2DL5A /// KIR2DL5B /// KIR2DS1 /// KIR2DS2 /// KIR2DS3 /// KIR2DS4 /// KIR3DL3 /// KIR3DL3 /// KIR3DS1 (11738374_at) / RFU C1QL1 (11718748_at) / Fold change /veh C1QL1 (11718748_at) / RFU TMPRSS4 (11747572_a_at) / Fold change /veh TMPRSS4 (11747572_a_at) / RFU HAMP (11756126_x_at) / Fold change /veh HAMP (11756126_x_at) / RFU RNFT2 (11725882_a_at) / Fold change /veh RNFT2 (11725882_a_at) / RFU NR4A2 (11747474_a_at) / Fold change /veh NR4A2 (11747474_a_at) / RFU ABCC12 (11746883_a_at) / Fold change /veh ABCC12 (11746883_a_at) / RFU TMEM136 (11760407_x_at) / Fold change /veh TMEM136 (11760407_x_at) / RFU CLDN22 /// WWC2 (11732394_at) / Fold change /veh CLDN22 /// WWC2 (11732394_at) / RFU HLA-DPB1 (11760878_x_at) / Fold change /veh HLA-DPB1 (11760878_x_at) / RFU SPINT1 (11716480_a_at) / Fold change /veh SPINT1 (11716480_a_at) / RFU GAP43 (11754022_s_at) / Fold change /veh GAP43 (11754022_s_at) / RFU A4GNT (11735810_at) / Fold change /veh A4GNT (11735810_at) / RFU PRB3 (11715151_x_at) / Fold change /veh PRB3 (11715151_x_at) / RFU TUBB4B (11761932_at) / Fold change /veh TUBB4B (11761932_at) / RFU CAPN14 (11732068_a_at) / Fold change /veh CAPN14 (11732068_a_at) / RFU TMCC2 (11721928_a_at) / Fold change /veh TMCC2 (11721928_a_at) / RFU IRGQ (11745062_a_at) / Fold change /veh IRGQ (11745062_a_at) / RFU FAM174B (11720279_a_at) / Fold change /veh FAM174B (11720279_a_at) / RFU TMPRSS4 (11748680_a_at) / Fold change /veh TMPRSS4 (11748680_a_at) / RFU FAM212B (11763350_a_at) / Fold change /veh FAM212B (11763350_a_at) / RFU PLEKHG5 (11743358_a_at) / Fold change /veh PLEKHG5 (11743358_a_at) / RFU ZSCAN30 (11745921_a_at) / Fold change /veh ZSCAN30 (11745921_a_at) / RFU CMKLR1 (11741424_a_at) / Fold change /veh CMKLR1 (11741424_a_at) / RFU LOC101060620 /// MAPK8IP1 (11723275_at) / Fold change /veh LOC101060620 /// MAPK8IP1 (11723275_at) / RFU SPTSSB (11747773_x_at) / Fold change /veh SPTSSB (11747773_x_at) / RFU PRSS12 (11739890_at) / Fold change /veh PRSS12 (11739890_at) / RFU BIN1 (11741810_x_at) / Fold change /veh BIN1 (11741810_x_at) / RFU WNT11 (11732464_a_at) / Fold change /veh WNT11 (11732464_a_at) / RFU C10orf10 (11716521_a_at) / Fold change /veh C10orf10 (11716521_a_at) / RFU C5orf56 (11738089_at) / Fold change /veh C5orf56 (11738089_at) / RFU CYB561 (11721691_x_at) / Fold change /veh CYB561 (11721691_x_at) / RFU ANKRD19P (11752326_a_at) / Fold change /veh ANKRD19P (11752326_a_at) / RFU OR2T12 /// OR2T33 /// OR2T8 (11738714_s_at) / Fold change /veh OR2T12 /// OR2T33 /// OR2T8 (11738714_s_at) / RFU VCAN (11748164_a_at) / Fold change /veh VCAN (11748164_a_at) / RFU JSRP1 (11732532_at) / Fold change /veh JSRP1 (11732532_at) / RFU KRTAP10-11 (11738290_x_at) / Fold change /veh KRTAP10-11 (11738290_x_at) / RFU MYO3A (11730013_a_at) / Fold change /veh MYO3A (11730013_a_at) / RFU EBF3 (11725865_a_at) / Fold change /veh EBF3 (11725865_a_at) / RFU CAMK2N1 (11719241_x_at) / Fold change /veh CAMK2N1 (11719241_x_at) / RFU C5orf56 (11738088_a_at) / Fold change /veh C5orf56 (11738088_a_at) / RFU OLFML3 (11715873_a_at) / Fold change /veh OLFML3 (11715873_a_at) / RFU LOC100653217 /// NTM (11731650_a_at) / Fold change /veh LOC100653217 /// NTM (11731650_a_at) / RFU MAPK11 (11762145_a_at) / Fold change /veh MAPK11 (11762145_a_at) / RFU FIZ1 (11724087_x_at) / Fold change /veh FIZ1 (11724087_x_at) / RFU OASL (11726364_x_at) / Fold change /veh OASL (11726364_x_at) / RFU SOX15 (11748057_x_at) / Fold change /veh SOX15 (11748057_x_at) / RFU CD79A (11719716_a_at) / Fold change /veh CD79A (11719716_a_at) / RFU HIST1H1D (11736915_at) / Fold change /veh HIST1H1D (11736915_at) / RFU CASKIN2 (11723855_a_at) / Fold change /veh CASKIN2 (11723855_a_at) / RFU LOC730098 (11760151_x_at) / Fold change /veh LOC730098 (11760151_x_at) / RFU OR4N2 (11742367_at) / Fold change /veh OR4N2 (11742367_at) / RFU PRRT2 (11749266_a_at) / Fold change /veh PRRT2 (11749266_a_at) / RFU SNX32 (11753110_a_at) / Fold change /veh SNX32 (11753110_a_at) / RFU CDHR5 (11726645_a_at) / Fold change /veh CDHR5 (11726645_a_at) / RFU RCAN1 (11760418_a_at) / Fold change /veh RCAN1 (11760418_a_at) / RFU FAM167A (11723789_a_at) / Fold change /veh FAM167A (11723789_a_at) / RFU FAM26E (11764081_at) / Fold change /veh FAM26E (11764081_at) / RFU ISYNA1 (11749810_s_at) / Fold change /veh ISYNA1 (11749810_s_at) / RFU ACY1 (11761880_at) / Fold change /veh ACY1 (11761880_at) / RFU 11764098_at / Fold change /veh 11764098_at / RFU SAMD14 (11745864_x_at) / Fold change /veh SAMD14 (11745864_x_at) / RFU NPB (11741838_a_at) / Fold change /veh NPB (11741838_a_at) / RFU TMPRSS6 (11731388_a_at) / Fold change /veh TMPRSS6 (11731388_a_at) / RFU KRTAP10-2 (11738614_at) / Fold change /veh KRTAP10-2 (11738614_at) / RFU ARHGAP8 /// PRR5-ARHGAP8 (11727945_x_at) / Fold change /veh ARHGAP8 /// PRR5-ARHGAP8 (11727945_x_at) / RFU KRTAP5-7 /// NADSYN1 (11734609_at) / Fold change /veh KRTAP5-7 /// NADSYN1 (11734609_at) / RFU RASL12 (11751679_a_at) / Fold change /veh RASL12 (11751679_a_at) / RFU CDKN2B (11736163_a_at) / Fold change /veh CDKN2B (11736163_a_at) / RFU PRF1 (11729649_at) / Fold change /veh PRF1 (11729649_at) / RFU, ZNF638 /// ZNF638-IT1 / Fold change vs veh, ZNF638 /// ZNF638-IT1 / RFU, PANK3 / Fold change vs veh, PANK3 / RFU, SH3YL1 / Fold change vs veh, SH3YL1 / RFU, ZEB2 / Fold change vs veh, ZEB2 / RFU, NRIP1 / Fold change vs veh, NRIP1 / RFU, PTTG1IP / Fold change vs veh, PTTG1IP / RFU, CAPN2 / Fold change vs veh, CAPN2 / RFU, MED14 / Fold change vs veh, MED14 / RFU, SNORA58 / Fold change vs veh, SNORA58 / RFU, C1orf63 / Fold change vs veh, C1orf63 / RFU, LRRFIP1 / Fold change vs veh, LRRFIP1 / RFU, NDUFAF7 / Fold change vs veh, NDUFAF7 / RFU, SLC12A2 / Fold change vs veh, SLC12A2 / RFU, IBTK / Fold change vs veh, IBTK / RFU, ESF1 / Fold change vs veh, ESF1 / Fold change vs veh, TMEM50B / RFU, TAOK1 / Fold change vs veh, TAOK1 / RFU, ACBD3 / Fold change vs veh, ACBD3 / RFU, TMA16 / Fold change vs veh, TMA16 / RFU, RWDD3 / Fold change vs veh, RWDD3 / RFU, BCAT1 / Fold change vs veh, BCAT1 / RFU, EDEM3 / Fold change vs veh, EDEM3 / RFU, TMEM33 / Fold change vs veh, TMEM33 / RFU, WDR75 / Fold change vs veh, WDR75 / RFU, AHCTF1 / Fold change vs veh, AHCTF1 / RFU, TFRC / Fold change vs veh, TFRC / RFU, ZDHHC17 / Fold change vs veh, ZDHHC17 / RFU, NOM1 / Fold change vs veh, NOM1 / RFU, ARL8B / Fold change vs veh, ARL8B / RFU, ZBTB11 / Fold change vs veh, ZBTB11 / RFU, TAMM41 / Fold change vs veh, TAMM41 / RFU, KIAA1704 /// LOC100996395 / Fold change vs veh, KIAA1704 /// LOC100996395 / RFU, ING1 / Fold change vs veh, ING1 / RFU, TRMT61B / Fold change vs veh, TRMT61B / RFU, FUBP3 / Fold change vs veh, FUBP3 / RFU, TP53 / Fold change vs veh, TP53 / RFU, TNKS2 / Fold change vs veh, TNKS2 / RFU, ZFP14 / Fold change vs veh, ZFP14 / RFU, ACTR2 / Fold change vs veh, ACTR2 / RFU, PPP3R1 / Fold change vs veh, PPP3R1 / RFU, PIK3R1 / Fold change vs veh, PIK3R1 / RFU, HNRNPA1 / Fold change vs veh, HNRNPA1 / RFU, RNF170 / Fold change vs veh, RNF170 / RFU, ZNF28 / Fold change vs veh, ZNF28 / RFU, RNGTT / Fold change vs veh, RNGTT / RFU, OGT / Fold change vs veh, OGT / RFU, BRD1 / Fold change vs veh, BRD1 / RFU, MARS / Fold change vs veh, MARS / RFU, ZNF655 / Fold change vs veh, ZNF655 / RFU, FAHD1 / Fold change vs veh, FAHD1 / RFU, BDP1 / Fold change vs veh, BDP1 / RFU, LRRCC1 / Fold change vs veh, LRRCC1 / RFU, ARID1A / Fold change vs veh, ARID1A / RFU, ZNF146 / Fold change vs veh, ZNF146 / RFU, ZNF330 / Fold change vs veh, ZNF330 / RFU, GPN3 / Fold change vs veh, GPN3 / RFU, C9orf123 / Fold change vs veh, C9orf123 / RFU, N4BP2L2 / Fold change vs veh, N4BP2L2 / RFU, ARFIP1 / Fold change vs veh, ARFIP1 / RFU, FAM179B / Fold change vs veh, FAM179B / RFU, BCL10 / Fold change vs veh, BCL10 / RFU, UHRF1BP1L / Fold change vs veh, UHRF1BP1L / RFU, BET1 / Fold change vs veh, BET1 / RFU, CNOT2 / Fold change vs veh, CNOT2 / RFU, ZNF268 / Fold change vs veh, ZNF268 / Fold change vs veh, ZNF507 / RFU, DGCR2 / Fold change vs veh, DGCR2 / RFU, WDSUB1 / Fold change vs veh, WDSUB1 / Fold change vs veh, HSP90B1 /// MIR3652 / RFU, ADSS / Fold change vs veh, ADSS / RFU, GK / Fold change vs veh, GK / RFU, ZNF148 / Fold change vs veh, ZNF148 / RFU, TAF9 / Fold change vs veh, TAF9 / RFU, SLC1A5 / Fold change vs veh, SLC1A5 / RFU, SLMO2 / Fold change vs veh, SLMO2 / RFU, ABCC4 / Fold change vs veh, ABCC4 / RFU, LOC101060439 /// RAP1B / Fold change vs veh, LOC101060439 /// RAP1B / RFU, RFX7 / Fold change vs veh, RFX7 / RFU, GTPBP10 / Fold change vs veh, GTPBP10 / RFU, CNEP1R1 / Fold change vs veh, CNEP1R1 / RFU, BIVM-ERCC5 /// ERCC5 / Fold change vs veh, BIVM-ERCC5 /// ERCC5 / RFU, ILF3 / Fold change vs veh, ILF3 / RFU 11762660_at / Fold change /veh 11762660_at / RFU VCAN (11757783_s_at) / Fold change /veh VCAN (11757783_s_at) / RFU DDX43 (11728927_at) / Fold change /veh DDX43 (11728927_at) / RFU KRT8 (11758188_x_at) / Fold change /veh KRT8 (11758188_x_at) / RFU NKD1 (11759106_at) / Fold change /veh NKD1 (11759106_at) / RFU SRD5A1 (11742802_a_at) / Fold change /veh SRD5A1 (11742802_a_at) / RFU TPSAB1 /// TPSB2 (11721975_s_at) / Fold change /veh TPSAB1 /// TPSB2 (11721975_s_at) / RFU GSTM3 (11746129_a_at) / Fold change /veh GSTM3 (11746129_a_at) / RFU IL23R (11737362_x_at) / Fold change /veh IL23R (11737362_x_at) / RFU TMEM51 (11727254_a_at) / Fold change /veh TMEM51 (11727254_a_at) / RFU PIWIL2 (11732686_x_at) / Fold change /veh PIWIL2 (11732686_x_at) / RFU ORM1 (11744905_x_at) / Fold change /veh ORM1 (11744905_x_at) / RFU CCDC152 (11743942_at) / Fold change /veh CCDC152 (11743942_at) / RFU ECM1 (11717891_a_at) / Fold change /veh ECM1 (11717891_a_at) / RFU IL23R (11748794_a_at) / Fold change /veh IL23R (11748794_a_at) / RFU TNFAIP8L3 (11732012_x_at) / Fold change /veh TNFAIP8L3 (11732012_x_at) / RFU MBOAT4 (11741988_at) / Fold change /veh MBOAT4 (11741988_at) / RFU 11764193_at / Fold change /veh 11764193_at / RFU TMEM53 (11763286_at) / Fold change /veh TMEM53 (11763286_at) / RFU MAGEB2 (11727129_at) / Fold change /veh MAGEB2 (11727129_at) / RFU TMEM200A (11744735_a_at) / Fold change /veh TMEM200A (11744735_a_at) / RFU CCDC152 (11751479_a_at) / Fold change /veh CCDC152 (11751479_a_at) / RFU FAM211A (11726209_a_at) / Fold change /veh FAM211A (11726209_a_at) / RFU RGS16 (11746705_a_at) / Fold change /veh RGS16 (11746705_a_at) / RFU VCAN (11755009_s_at) / Fold change /veh VCAN (11755009_s_at) / RFU RHOB (11743442_s_at) / Fold change /veh RHOB (11743442_s_at) / RFU RGS16 (11720943_a_at) / Fold change /veh RGS16 (11720943_a_at) / RFU RGS16 (11720944_at) / Fold change /veh RGS16 (11720944_at) / RFU, VPS4B / Fold change vs veh, VPS4B / RFU, CREB1 / Fold change vs veh, CREB1 / RFU, DNAJC13 / Fold change vs veh, DNAJC13 / RFU, GNAQ / Fold change vs veh, GNAQ / RFU, CDK5R1 / Fold change vs veh, CDK5R1 / RFU, ZRANB3 / Fold change vs veh, ZRANB3 / RFU, CUL4A / Fold change vs veh, CUL4A / RFU, CCNY / Fold change vs veh, CCNY / RFU, UFL1 / Fold change vs veh, UFL1 / RFU, COG3 / Fold change vs veh, COG3 / RFU, DIAPH2 / Fold change vs veh, DIAPH2 / RFU, SKA2 / Fold change vs veh, SKA2 / RFU, AFF3 / Fold change vs veh, AFF3 / RFU, LMF1 / Fold change vs veh, LMF1 / RFU, IPO11 / Fold change vs veh, IPO11 / RFU, DFFB / Fold change vs veh, DFFB / RFU, FOXP1 / Fold change vs veh, FOXP1 / RFU, CARD8 / Fold change vs veh, CARD8 / RFU, STRN3 / Fold change vs veh, STRN3 / RFU, ADK / Fold change vs veh, ADK / RFU, RASSF2 / Fold change vs veh, RASSF2 / RFU, WIPF1 / Fold change vs veh, WIPF1 / RFU, LARP1B / Fold change vs veh, LARP1B / RFU, RASA1 / Fold change vs veh, RASA1 / RFU, RB1 / Fold change vs veh, RB1 / RFU, PPFIA1 / Fold change vs veh, PPFIA1 / RFU, MAT2A / Fold change vs veh, MAT2A / RFU, CCT5 / Fold change vs veh, CCT5 / RFU, WDR92 / Fold change vs veh, WDR92 / RFU, CUX1 / Fold change vs veh, CUX1 / RFU, TTC7A / Fold change vs veh, TTC7A / RFU, TMEM135 / Fold change vs veh, TMEM135 / RFU, DEPTOR / Fold change vs veh, DEPTOR / RFU, CPM / Fold change vs veh, CPM / RFU, DNAJB6 / Fold change vs veh, DNAJB6 / RFU, CACNA2D3 / Fold change vs veh, CACNA2D3 / RFU, DTX4 / Fold change vs veh, DTX4 / RFU, TFCP2 / Fold change vs veh, TFCP2 / RFU, GMCL1 /// GMCL1P1 / Fold change vs veh, GMCL1 /// GMCL1P1 / RFU, AEBP2 / Fold change vs veh, AEBP2 / RFU, SNHG1 /// SNORD22 /// SNORD25 /// SNORD26 /// SNORD27 /// SNORD28 /// SNORD29 /// SNORD31 / Fold change vs veh, SNHG1 /// SNORD22 /// SNORD25 /// SNORD26 /// SNORD27 /// SNORD28 /// SNORD29 /// SNORD31 / Fold change (Aza/veh), C12orf56 (ProbeSet 11735607_a_at) / Fold change (ACY-1035/veh), C12orf56 (ProbeSet 11735607_a_at) / Fold change (Aza/veh), FGFR1OP (ProbeSet 11751329_s_at) / Fold change (ACY-1035/veh), FGFR1OP (ProbeSet 11751329_s_at) / Fold change (Aza/veh), VPS36 (ProbeSet 11739960_a_at) / Fold change (ACY-1035/veh), VPS36 (ProbeSet 11739960_a_at) / RFU SYPL1 (11715823_x_at) / Fold change /veh SYPL1 (11715823_x_at) / RFU IGFBP7 (11715501_s_at) / Fold change /veh IGFBP7 (11715501_s_at) / RFU REEP3 (11722064_at) / Fold change /veh REEP3 (11722064_at) / RFU IGLL1 (11728026_x_at) / Fold change /veh IGLL1 (11728026_x_at): dose or concentration left out as unconfirmed. Conditions: ProbeSet 11749645_x_at; LIST B.

Data on one compound can be found in paper PMC5218480 (PLoS ONE, 2017).

Molecules are shown by their SMILES.

As for `Nc1ncn([C@@H]2O[C@H](CO)[C@@H](O)[C@H]2O)c(=O)n1` [azacitidine], the “Fold change vs veh, ZNF268” value is reported as 0.97.
